The record followed here is ChEMBL document CHEMBL4038322, “Interactions between β2-Adrenoceptor Ligands and Membrane: Atomic-Level Insights from Magic-Angle Spinning NMR” (J Med Chem, 2017).

SMILES strings stand for the structures. Calls of active or inactive are those of the source. The rule behind the calls is not given here. Where only a bound is given, the exact number is not on record here.

The subject of data set [1] is Lipid bilayer. Nature of the data set: Binding affinity to POPC liposome membrane assessed as 31P chemical shift anisotropy at compound to POPC molar ratio of 1:10 by NMR analysis (reference value: 28.9 ppm).
A short description of data set [2]: Lipophilicity of the compound assessed as capacity factor (CHI IAM7.4) at pH 7.4 by chromatographic analysis. The class given is physicochemical. The following applies: buffer.
Data set [3] deals with Lipid bilayer. Nature of the data set: Binding affinity to POPC liposome membrane in liquid disorder phase assessed as change in cross-relaxation rate of hydrophilic group B protons with G-3 segment at compound to POPC molar ratio of 1:10 to 1:5 by 1D 1H […] analysis.
Data set [4] in a line: n-octanol/PBS/sodium carbonate partition coefficient, log P of the compound after 4 hrs. The class given is physicochemical.
The test system of data set [5] is Lipid bilayer. Put plainly: Binding affinity to POPC liposome membrane in liquid disorder phase assessed as change in cross-relaxation rate of hydrophilic group B protons with G-1 segment at compound to POPC molar ratio of 1:10 to 1:5 by 1D 1H […] analysis.
Data set [6] has as its system Lipid bilayer. Put plainly: Binding affinity to POPC liposome membrane assessed as cross-relaxation rate of E proton with C-3/C-2 region of lipid at compound to POPC molar ratio of 1:10 by NOESY 1H NMR analysis.
Data set [7] deals with Lipid bilayer. Put plainly: Binding affinity to POPC liposome membrane assessed as cross-relaxation rate of F proton with C-3/C-2 region of lipid at compound to POPC molar ratio of 1:10 by NOESY 1H NMR analysis.
Data set [8] relates to Lipid bilayer. Put plainly: Binding affinity to POPC liposome membrane assessed as cross-relaxation rate of H proton with C-3/C-2 region of lipid at compound to POPC molar ratio of 1:10 by NOESY 1H NMR analysis.
Data set [9] concerns Lipid bilayer. Nature of the data set: Binding affinity to POPC liposome membrane at compound to POPC molar ratio of 1:10 after 300 milliseconds by NOESY 1H NMR analysis.
For data set [10], the system named is Lipid bilayer. Put plainly: Binding affinity to POPC liposome membrane assessed as 31P chemical shift anisotropy at compound to POPC molar ratio of 1:10 in presence of Mn2+ by NMR analysis.
In data set [11] the test system is Lipid bilayer. Nature of the data set: Binding affinity to POPC liposome membrane at compound to POPC molar ratio of 1:10 after 3 milliseconds by 2D NOESY NMR analysis.
In data set [12] the test system is Lipid bilayer. Nature of the data set: Binding affinity to POPC liposome membrane in liquid disorder phase assessed as broadening of POPC signals at compound to POPC molar ratio of 1:5 by 1D 1H […] analysis.
In data set [13] the test system is Lipid bilayer. Put plainly: Binding affinity to POPC liposome membrane in liquid disorder phase assessed as change in cross-relaxation rate of lypophilic group E protons with C2/C3 segment at compound to POPC molar ratio of 1:10 to 1:5 by 1D 1H […] analysis.
Data set [14] relates to Lipid bilayer. Nature of the data set: Binding affinity to POPC liposome membrane at compound to POPC molar ratio of 1:10 after 3 milliseconds in presence of Mn2+ by 2D NOESY NMR analysis.
For data set [15], the system named is Lipid bilayer. Nature of the data set: Binding affinity to POPC liposome membrane assessed as cross-relaxation rate of F protons with segment beta at compound to POPC molar ratio of 1:10 by NOESY 1H NMR analysis. The arrangement: scale not given: the % may be the effect or the level left.
Data set [16] has as its system Lipid bilayer. Put plainly: Binding affinity to POPC liposome membrane assessed as cross-relaxation rate of F protons with segment alpha at compound to POPC molar ratio of 1:10 by NOESY 1H NMR analysis. Also on record: scale not given: the % may be the effect or the level left.
The subject of data set [17] is Lipid bilayer. Nature of the data set: Binding affinity to POPC liposome membrane assessed as cross-relaxation rate of F protons with lipid acyl CH3 at compound to POPC molar ratio of 1:10 by NOESY 1H NMR analysis. The arrangement: scale not given: the % may be the effect or the level left.
The subject of data set [18] is Lipid bilayer. Nature of the data set: Binding affinity to POPC liposome membrane assessed as cross-relaxation rate of F protons with segment G-3 at compound to POPC molar ratio of 1:10 by NOESY 1H NMR analysis. The arrangement: scale not given: the % may be the effect or the level left.
For data set [19], the system named is Lipid bilayer. Put plainly: Binding affinity to POPC liposome membrane assessed as cross-relaxation rate of E protons with C2/C3 segment at compound to POPC molar ratio of 1:10 by NOESY 1H NMR analysis.
Data set [20] relates to Lipid bilayer. Nature of the data set: Binding affinity to POPC liposome membrane assessed as cross-relaxation rate of F protons with segment gamma at compound to POPC molar ratio of 1:10 by NOESY 1H NMR analysis. The arrangement: scale not given: the % may be the effect or the level left.
Data set [21] deals with Lipid bilayer. Nature of the data set: Binding affinity to POPC liposome membrane assessed as cross-relaxation rate of E protons with (CH2)n segment at compound to POPC molar ratio of 1:10 by NOESY 1H NMR analysis.
Data set [22] relates to Lipid bilayer. Nature of the data set: Binding affinity to POPC liposome membrane assessed as cross-relaxation rate of E protons with CH2-C= segment at compound to POPC molar ratio of 1:10 by NOESY 1H NMR analysis.

The term logP denotes a log measure of how a compound divides between an organic and an aqueous phase. Consider `O=c1ccc2c([C@@H](O)CNC3Cc4ccccc4C3)ccc(O)c2[nH]1`, for which the Activity with Lipid bilayer [1] is 32 to 33.6 ppm. Moreover, in data set [2], the CHI was found to be 41.6. Moreover, the outcome with Lipid bilayer [3], in the data set with Lipid bilayer [5] and with Lipid bilayer [6] was Active. The compound further had a logP at 4 h in [4] of 1.55.

Take `CCc1ccc(CC)c2c1CC(NC[C@H](O)c1ccc(O)c3[nH]c(=O)ccc13)C2`: the Activity with Lipid bilayer [1] was 32 to 33.6 ppm. In [2], the CHI was found to be 58.9. The outcome in the data set on Lipid bilayer [7] was Active. For the same compound, in [4], the lipophilicity (logP) at 4 h came to 3.03.

Consider `COc1ccc(CC(C)NCC(O)c2ccc(O)c(NC=O)c2)cc1` (stereo not drawn), for which the Activity in the data set with Lipid bilayer [1] was 32 to 33.6 ppm. The outcome with Lipid bilayer [8] and in the data set on Lipid bilayer [9] was Active.

For `CCc1cc2c(cc1CC)CC(NC[C@H](O)c1ccc(O)c3[nH]c(=O)ccc13)C2` [INDACATEROL], the Activity is 32 to 33.6 ppm with Lipid bilayer [1] and 20 to 40% in the data set with Lipid bilayer [12]. For the same compound, the CHI in data set [2] was found to be 62.5. In addition, the result with Lipid bilayer [10], in the data set on Lipid bilayer [3], with Lipid bilayer [5], with Lipid bilayer [11], with Lipid bilayer [13] and in the data set with Lipid bilayer [6] was Active. Moreover, the outcome with Lipid bilayer [14] was Active. The logP at 4 h in data set [4] came to 3.05.

In the case of `OCc1cc(C(O)CNCCCCCCOCCCCc2ccccc2)ccc1O` (stereo not drawn) [SALMETEROL], the Activity in the data set on Lipid bilayer [15] was 26%; with Lipid bilayer [1], 32 to 33.6 ppm; with Lipid bilayer [16], 69%; in the data set on Lipid bilayer [17], 58%; with Lipid bilayer [18] it was 49%; in the data set on Lipid bilayer [20] it was 43%. Further, in the data set with Lipid bilayer [6], the Activity was under 0.0025 s⁻¹. The CHI in [2] is 56.7. For the same compound, the outcome with Lipid bilayer [3], in the data set with Lipid bilayer [5], with Lipid bilayer [19], in the data set with Lipid bilayer [21] and in the data set with Lipid bilayer [22] was Active. The compound further registered a logP at 4 h in data set [4] of 3.08.
